The values that follow come from patent publication US20120202814A1, “COMPOUNDS WITH DDX3 INHIBITORY ACTIVITY AND USES THEREOF” (UNIVERSITÀ DEGLI STUDI DI SIENA, priority 2009, published 2012).

Data set [1] has as its target T1, human DDX3 (ATPase activity) (Homo sapiens, UniProt O00571).
T1 construct: made in house; host or cells: E. coli
The data set is described as follows: Human DDX3 ATPase activity assay (luciferase-based luminescence). Format: biochemical. The note with it: DDX3 ATPase activity; read-out: Ki (μM), apparent equilibrium dissociation constant for the inhibitor to the target enzyme DDX3. On the procedure: ATPase activity was tested with a luciferase-based luminescence assay (Easylite-Kinase, Perkin Elmer) on 96 wells microtiter plates. Briefly, recombinant purified human DDX3 (50-100 ng) was incubated in a 15 μL total reaction volume with reaction buffer (25 mM TrisHCl pH 7.5, 5 mM MgCl2), in the presence of increasing amounts of ATP and/or different combinations of ATP and the inhibitor to be tested. Reference curves in the absence of inhibitor (giving the 100% of enzymatic activity) and in the absence of enzyme (giving the baseline), were also included in each experiment. Reading was performed with a Microbeta Trilux (Perkin Elmer) luminometer, according to the manufacturer's protocol.
ATPase reactions were performed as described, in the presence of increasing amounts of inhibitor and variable ATP concentrations. Variations of the initial velocities of the reaction as a function of ATP concentrations in the absence or presence of 4 were analyzed with the equation: […]
Variation of the % inhibition as a function of compound FE15 at different ATP concentrations were fitted to the equation for cooperative binding: […]
where Vmax is the apparent maximal rate of the reaction in the absence of the inhibitor, [I] is the variable inhibitor concentration, n is the cooperativity index and Ki(app) is the apparent inhibition constant. Comparatively, fitting was done with the same Eq. (2) where n was kept fixed at the value of 1 (non-cooperativity hypothesis). F test was used to compare the two fittings and p value was calculated.
Human recombinant DDX3 was cloned, expressed and purified as described (Franca et al. Proteins 2007, 67, 1128-37).
The anti-DDX3 activity of the compounds of the invention was evaluated by in vitro ATPase activity assay using the recombinant human DDX3 protein produced in E. coli. The potency of inhibition (Ki) for each molecule was calculated, representing the concentration of the inhibitor able to reduce the DDX3 ATPase activity by 50%

T1 sequence (O00571 whole entry): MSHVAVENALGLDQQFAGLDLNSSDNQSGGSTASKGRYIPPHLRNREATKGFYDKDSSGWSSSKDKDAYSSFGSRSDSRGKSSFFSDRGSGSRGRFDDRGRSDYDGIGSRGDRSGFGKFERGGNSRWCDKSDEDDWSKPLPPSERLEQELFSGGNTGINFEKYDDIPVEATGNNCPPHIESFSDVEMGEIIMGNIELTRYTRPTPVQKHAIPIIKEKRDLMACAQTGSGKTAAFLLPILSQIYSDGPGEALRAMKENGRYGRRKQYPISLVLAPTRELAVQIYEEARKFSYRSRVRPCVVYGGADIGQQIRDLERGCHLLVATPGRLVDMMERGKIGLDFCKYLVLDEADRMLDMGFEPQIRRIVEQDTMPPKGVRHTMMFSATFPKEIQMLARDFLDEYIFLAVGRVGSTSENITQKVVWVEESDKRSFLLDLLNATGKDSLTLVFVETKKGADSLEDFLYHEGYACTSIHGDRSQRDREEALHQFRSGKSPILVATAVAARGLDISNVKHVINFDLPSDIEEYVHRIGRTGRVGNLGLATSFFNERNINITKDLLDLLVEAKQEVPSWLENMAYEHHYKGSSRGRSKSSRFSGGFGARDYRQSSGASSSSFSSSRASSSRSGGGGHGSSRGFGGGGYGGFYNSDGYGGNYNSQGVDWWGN

`O=C1/C(=C/c2cccc(Br)c2)SC(=S)N1CCc1ccccc1` [Compound 3a, (Z)-5-(3-bromobenzylidene)-3-phenethyl-2-thioxothiazolidin-4-one]: the melting point was in the range of 102 to 104 °C.

With `O=C1/C(=C/c2cccc(Br)c2)SC(=S)N1Cc1ccccc1` [Compound 3b, (Z)-5-(3-bromobenzylidene)-3-benzyl-2-thioxothiazolidin-4-one], the melting point lay within 112 to 113 °C.

In turn, `C#CN1C(=O)/C(=C/c2cccc(Br)c2)SC1=S` [Compound 3c, (Z)-5-(3-bromobenzylidene)-3-ethynyl-2-thioxothiazolidin-4-one] displayed a melting point of 159 to 161 °C.

The compound `COC(CN1C(=O)/C(=C/c2cccc(Br)c2)SC1=S)OC` [Compound 3d, (Z)-5-(3-bromobenzylidene)-3-(2,2-dimethoxyethyl)-2-thioxothiazolidin-4-one] displayed a melting point of 124 to 126 °C.

Compound `CCCCN1C(=O)/C(=C/c2cccc(Br)c2)SC1=S` [Compound 3e, (Z)-5-(3-bromobenzylidene)-3-butyl-2-thioxothiazolidin-4-one] yielded a melting point of 113 to 115 °C.

With `COc1cccc(/C=C2\SC(=S)N(CCc3ccccc3)C2=O)c1` [Compound 3f, (Z)-5-(3-methoxybenzylidene)-3-phenethyl-2-thioxothiazolidin-4-one], the melting point lay in the range of 122 to 125 °C.

`O=C1/C(=C/c2ccco2)SC(=S)N1CCc1ccccc1` [Compound 3g, (Z)-5-((furan-2-yl)methylene)-3-phenethyl-2-thioxothiazolidin-4-one] returned a melting point of 150 to 152 °C.

`O=C1/C(=C/c2cccnc2)SC(=S)N1CCc1ccccc1` [Compound 3h, (Z)-3-phenethyl-5-((pyridin-3-yl)methylene)-2-thioxothiazolidin-4-one] yielded a melting point of 138 to 140 °C.

Turning to `O=C1/C(=C/c2ccc3ccccc3c2)SC(=S)N1CCc1ccccc1` [Compound 3i, (Z)-5-((naphthalen-3-yl)methylene)-3-phenethyl-2-thioxothiazolidin-4-one], the melting point was in the range of 174 to 176 °C.

As for `O=C(NCCN1C(=O)/C(=C/c2cccc(Br)c2)SC1=S)c1ccccc1O` [Compound 3j, N-(2-((Z)-5-(3-Bromobenzylidene)-4-oxo-2-thioxothiazolidin-3-yl)ethyl)-2-hydroxybenzamide], the Ki in data set [1] was 4.2 µM.

As for `O=C(NCCN1C(=O)/C(=C/c2cccc(F)c2)SC1=S)c1ccccc1O` [Compound 3k, N-(2-((Z)-5-(3-Fluorobenzylidene)-4-oxo-2-thioxothiazolidin-3-yl)ethyl)-2-hydroxy-benzamide], the Ki in data set [1] came to 4.3 µM.

Turning to `O=C(CCN1C(=O)C/C(=C\c2cccc(Br)c2)C1=O)Nc1ccccc1O` [Compound 6b, 3-((E)-3-(3-bromobenzylidene)-2,5-dioxopyrrolidin-1-yl)-N-(2-hydroxyphenyl)propanamide], the Ki in data set [1] came out at 28 µM.

Turning to `Fc1ccc(Nc2nc(N/N=C/c3cccc4ccccc34)nc(N3CCOCC3)n2)cc1` [Compound 11a, (E)-N-(4-fluorophenyl)-4-morpholino-6-(2-(naphthalen-1-ylmethylene)hydrazinyl)-1,3,5-triazin-2-amine], the melting point lay in the range of 220 to 220.4 °C. Also, the Ki in data set [1] was found to be 86 µM.

In turn, `Fc1ccc(Nc2nc(N/N=C/c3ccc4ccccc4c3)nc(N3CCOCC3)n2)cc1` [Compound 11b, (E)-N-(4-fluorophenyl)-4-morpholino-6-(2-(naphthalen-2-ylmethylene)hydrazinyl)-1,3,5-triazin-2-amine] registered a melting point of 225 to 226 °C. The Ki in data set [1] is 8.5 µM.

Consider `Fc1ccc(Nc2nc(N/N=C/c3c(F)cccc3F)nc(N3CCOCC3)n2)cc1` [Compound 11c, (E)-4-(2-(2,6-difluorobenzylidene)hydrazinyl)-N-(4-fluorophenyl)-6-morpholino-1,3,5-triazin-2-amine], for which the melting point was in the range of 155.5 to 156 °C. For the same compound, in data set [1], the Ki came out at 2.6 µM.

`O=C1Nc2ccccc2/C1=N/Nc1nc(NCc2cccc(Cl)c2)nc(N2CCOCC2)n1` [Compound 14f, (Z)-3-(2-(4-(3-Chlorobenzylamino)-6-morpholino-1,3,5-triazin-2-yl)hydrazono)indolin-2-one] showed a melting point of 144 to 144.5 °C. Further, the Ki in data set [1] came to 2.9 µM.

In the case of `Oc1ccccc1/C=N/Nc1nc(NCc2cccc(Cl)c2)nc(N2CCOCC2)n1` [Compound 15j, (E)-2-((2-(4-(3-chlorobenzylamino)-6-morpholino-1,3,5-triazin-2-yl)hydrazono)methyl)phenol], the melting point is 163.5 to 164 °C. In addition, the Ki in data set [1] was determined as 62 µM.

Take `OCCc1cc(Nc2ccc(F)cc2)nc(N/N=C/c2ccccc2O)n1` [Compound 22, 2-((2-(4-(4-Fluorophenylamino)-6-(2-hydroxyethyl)pyrimidin-2-yl)hydrazono)methyl)phenol]: the Ki in data set [1] worked out at 9 µM.

The compound `O=C(CCN1C(=O)/C(=C/c2cc(F)cc(F)c2)SC1=S)Nc1ccccc1O` [Compound 35c, 3-((Z)-5-(3,5-Difluorobenzylidene)-4-oxo-2-thioxothiazolidin-3-yl)-N-(2-hydroxyphenyl) propanamide] returned a melting point of 235 to 237 °C. In addition, the Ki in data set [1] is 0.5 µM.

With `Cc1cccc(/C=C2\SC(=S)N(CCC(=O)Nc3ccccc3O)C2=O)c1` [Compound 35d, 3-((Z)-5-(3-Methylbenzylidene)-4-oxo-2-thioxothiazolidin-3-yl)-N-(2-hydroxyphenyl) propanamide], the melting point is 208 to 209 °C. Moreover, in data set [1], the Ki amounted to 97 µM.

For the compound `COc1cccc(/C=C2\SC(=S)N(CCC(=O)Nc3ccccc3O)C2=O)c1` [Compound 35e, 3-((Z)-5-(3-Methoxybenzylidene)-4-oxo-2-thioxothiazolidin-3-yl)-N-(2-hydroxyphenyl) propanamide], the melting point fell in the range of 200 to 202 °C. In addition, in data set [1], the Ki worked out at 10 µM.

Take `O=C(CCN1C(=O)/C(=C/c2ccc3c(c2)OCO3)SC1=S)Nc1ccccc1O` [Compound 35f, 3-((Z)-5-((Benzo[d][1,3]dioxol-5-yl)methylene)-4-oxo-2-thioxothiazolidin-3-yl)-N-(2-hydroxyphenyl)propanamide]: the melting point lay within 240 to 241 °C. The Ki in data set [1] is 1 µM.

The compound `O=C(CCN1C(=O)/C(=C/c2cccc(Br)c2)SC1=S)Nc1ccccc1[N+](=O)[O-]` [Compound 35g, 3-((Z)-5-(3-Bromobenzylidene)-4-oxo-2-thioxothiazolidin-3-yl)-N-(2-nitrophenyl)propanamide] registered a melting point of 204 to 206 °C. Besides, the Ki in data set [1] worked out at 8.7 µM.

In the case of `O=C(CCN1C(=O)/C(=C/c2cccc(F)c2)SC1=S)Nc1ccccc1[N+](=O)[O-]` [Compound 35h, 3-((Z)-5-(3-Fluorobenzylidene)-4-oxo-2-thioxothiazolidin-3-yl)-N-(2-nitrophenyl)propanamide], the melting point fell in the range of 207 to 208 °C. For the same compound, the Ki in data set [1] was 7.6 µM.

On to `Clc1ccccc1-c1ccc(/C=N/Nc2nc(Nc3ccccc3)nc(N3CCOCC3)n2)o1` [FE-56AA], for which the Ki in data set [1] was found to be 3.2 µM.

As for `O=C1Nc2ccccc2/C1=N\Nc1nc(Nc2cccc(Cl)c2)nc(N2CCOCC2)n1` [FE-56AD], the Ki in data set [1] was 2 µM.

For the compound `Cc1ccc(Nc2nc(N/N=C3/C(=O)Nc4ccccc43)nc(N3CCOCC3)n2)cc1Cl` [FE-56AH], the Ki in data set [1] was 3.2 µM.

Consider `CC(=O)Nc1ccc(/C(C)=N/Nc2nc(Nc3ccccc3)nc(N3CCOCC3)n2)cc1` [FE-56AI], for which the Ki in data set [1] was 2.2 µM.

For the compound `Cc1ccc(Nc2nc(N/N=C/c3ccccc3O)nc(N3CCOCC3)n2)cc1Cl` [FE-56AM], in data set [1], the Ki was 1.6 µM.

On to `CC(=O)Nc1ccc(/C(C)=N/Nc2nc(NCc3ccccc3)nc(N3CCOCC3)n2)cc1` [FE-56AN], for which the Ki in data set [1] was found to be 0.5 µM.

On to `Oc1ccc(/C=N/Nc2nc(Nc3ccccc3)nc(Nc3ccccc3)n2)c(O)c1` [FE-56I], for which the Ki in data set [1] was found to be 33 µM.

As to `Clc1ccc(/C=N/Nc2nc(Nc3ccccc3)nc(Nc3ccccc3)n2)cc1Cl` [FE-56O], the Ki in data set [1] is 18 µM.

On to `O=C(Oc1cccc(/C=N/Nc2nc(Nc3ccccc3)nc(N3CCOCC3)n2)c1)c1ccco1` [FE-56U], for which the Ki in data set [1] worked out at 6.3 µM.

With `O=[N+]([O-])c1ccc(Cl)c(-c2ccc(/C=N/Nc3nc(Nc4ccc(F)cc4)nc(N4CCOCC4)n3)o2)c1` [FE-56V], the Ki in data set [1] was found to be 3.6 µM.

Consider `COc1ccc(Nc2nc(NCc3ccco3)nc(N/N=C/c3ccc(-c4ccccc4[N+](=O)[O-])o3)n2)cc1` [FE-56Z], for which the Ki in data set [1] was determined as 1.9 µM.

On to `COc1cc(/C=C2\SC(=S)N(CCC(=O)N3CCCc4ccccc43)C2=O)cc(OC)c1OC` [FE-69], for which, in data set [1], the Ki was 0.9 µM.

In the case of `O=C(CCN1C(=O)/C(=C/c2ccc3c(c2)OCO3)SC1=S)Nc1ccccc1C(=O)O` [FE-70], the Ki in data set [1] was determined as 0.4 µM.

Take `COc1cc(/C=C2\SC(=S)N(CCC(=O)Nc3ccccc3O)C2=O)cc(OC)c1OC` [FE-74]: in data set [1], the Ki amounted to 0.1 µM.

`COc1ccc(/C=C2\SC(=S)N(CCC(=O)Nc3ccccc3C(=O)O)C2=O)cc1` [FE-77]: the Ki in data set [1] is 2 µM.

In general, melting point refers to the temperature, or range, at which the solid turns liquid.
